According to patent US6444640B1, “Compositions of trail and DNA damaging drugs and uses thereof” (Ludwig Institute for Cancer Research, priority 1999, dated 2002):
Like-named read-outs stand apart in the source and are kept apart here.

Tests used:
DR5 = test: Northern blot of DR5 expression in human glioma cell lines after drug treatment; assay type: cell-based; details: for basal level expression of ~4.4Kb DR5 transcripts after contact with drug: U87MG, A1207, U178 cells, Northern blot
Protocol: This first set of experiments was designed to determine whether chemotherapeutic agents which are used in treating gliomas could upregulate expression of DR5 in human glioma cell lines. This was apreliminary step to determine if wild type p53, which is found in de novo glioblastomas, could be exploited.
The human glioblastoma cell lines U87MG, A1207, and U178 were used. The first two of these cell lines are homozygous for wild type p53, while U178 cells express a wild type allele, and an allele with a mutation at codon 271. Samples of cells were treated with one of cis-diamminedichloroplatinum (II) (“CDDP” hereafter), ectoposide (“VP16” hereafter), or chloroethyl)-BCNU. The U87MG and U178 cells received either 0, 1, or 4 ug/ml doses of CDDP; 0, 8, or 16 ug/ml doses of VP16, or 0, 100, or 200 μM doses of BCNU. The A1207 cells received 0, 5, or 20 ug/ml of CDDP, 0, 8 or 16 ug/ml of VP16, or 0, 100, or 200 μM doses of BCNU.
The cells were treated with the drug at an indicated dosage for 16 hours, after which they were harvested, and total RNA was extracted, following standard methods. Then, 15 ug samples were size fractionated on a 1% agarose formaldehyde gel, and transferred to a nylon membrane. These samples were then probed with a human DR5 cDNA probe, 583 base pairs long. This had beenz prepared via RT-PCR of total RNA of U87MG cells using:
The hybridization was carried out at 68° C. for 2 hours, followed by washing in 0.5×SSC and 0.1% SDS at 58° C. for 15 minutes. The membranes were then exposed to film at −80° C. with an intensifying screen. In order to confirm that RNA had in fact been loaded, 28SrRNA was stained with methylene blue.

[1] = tested on: astrocytes from p53 knockout mice; details: in vitro; cited from earlier work
[2] = tested on: poly (ADP-ribase) polymerase; test: Western blot for PARP cleavage (activation of effector caspases); assay type: cell-based, human; details: 24 hours after treatment
Protocol: The direct assessment of activation of effector caspases was examined by assaying for cleavage of poly (ADP-ribase) polymerase, or “PARP”, after treatment with combinations of a DNA damaging agent (CDDP or VP16), TRAIL, DR5-Fc or Fc, and the caspase inhibitor, Z-Asp-CH2-DCB. This was determined via Western blotting, where 20 ug of clarified protein lysate was loaded onto SDS gels 24 hours after treatment, electrophoresed, transferred to membranes, and then probed with monoclonal antibodies against PARP. Full length PARP has a molecular weight of about 116 kilodalton and, when cleaved, one fragment is 85 kilodaltons.

U87MG cells [3] = test: MTT survival assay; details: for cell viability, single agent: TRAIL 0.1 ug/ml, CDDP 4 ug/ml, VP16 16 ug/ml, 24 hours
Protocol: (§1) Experiments were then carried out to determine if combining TRAIL with the damaging agents would enhance cytotoxicity. The method employed to determine if combining TRAIL with the damaging agents would enhance cytotoxicity was the 3-(4,5-dimethylthiazol-2-yl)-2,5-diphenyl tetrazolum bromide (“MTT”) survival assay, described by Mosmann, et al., J. Immunol. […] Cells (U87MG) were plated, at 1×10^4 cells/well in 96 well microtiter plates overnight.
(§2) The cytotoxic effect of TRAIL, in combination with one of the DNA damaging agents discussed supra, i.e., CDDP, VP16, as BCNU was tested, by either adding TRAIL alone, the drug alone, or TRAIL plus the drug, in a two component combination, with DR5-Fc, referred to supra, or with Fc. The dosages were as provided supra.

U87MG cells [4] = test: Subcutaneous U87MG tumors in nude mice, Example 7; assay type: in vivo; details: single agent
Protocol: To test this, U87MG cells (2×10^6) were suspended in 0.1 ml PBS, and then injected subcutaneously into the right flank of 4-5 week old female nude mice, of BALB/C background. Tumors were permitted to become established, and then grow for 20 days, reaching an approximate innate volume of 150 mm^3. Then, either CDDP (3 mg/kg), or sterile normal saline was administered intraperitoneally on days 20,21,22,30,31, and 32. Mice also received either fusion protein FLAG-TRAIL (200 ug), or a mock control. The FLAG-TRAIL fusion protein described by Degli-Esposti, et al., J. Exp. Med 186: 1165-1170 (1997), incorporated by reference, was prepared via standard recombinant methods. Mock controls were prepared by carrying out the same protocol used to produce the FLAG-TRAIL, but without a vector which encoded the fusion protein. Cell lysate was used as the control. The FLAG-TRAIL or control was administered via intraveneous and intraperitoneal injections 16 hours and 24 hours following CDDP treatment, i.e., on days 21,22,23, 31,32 and 33. Growth of the tumors was measured at 2 day intervals, in accordance with Huang, et al., J. Biol Chem 272: […] (1997).

U87MG cells [5] = test: Apoptosis of U87MG cells (TUNEL, flow cytometry) with caspase inhibitor; assay type: cell-based, human
Protocol: In these experiments, the mechanism by which the cell death caused by combination of TRAIL and DNA damaging agents was studied further. U87MG cells were plated overnight, and then treated with either TRAIL alone (0.1 ug/ml), CDDP alone (4 ug/ml) VP16 alone (16 ug/ml) TRAIL and CDDP, at the recited doses, or TRAIL plus VP16, at the recited doses. The cells were treated for 44 hours, collected, fixed in 2% formaldehyde, and permeabilized in 0.05% Tween-20 in bovine serum albumin solution.
The cells were then incubated with TUNEL (terminal deoxynucleotidyl transferase mediated nick end labeling) solution, at 37° C. for 1 hour. Those cells which stained positively with fluorescein were analyzed via flow cytometry. The morphology of the dead cells was typical of apoptosis.
TRAIL is known to induce apoptosis through activation of effector caspases. See, e.g., Wu, et al., Nature Genet 17: 141-143 (1997); Wiley et al., Immunity 3: 673-682 (1995); Pitti, et al., J. Biol Chem 271: 12687-12690 (1996); Pan, et al., Science 277: 815-818 (1997); Sheridan, et al., Science 277: 818-821 (1997); Walczak, et al., EMBO J. 16: 5386-5397 (1997).

U87MG cells [6] = tested on: U87MG cells
Protocol: as §1, §2

O=NN(CCCl)C(=O)NCCCl [BCNU, 1,3 bis (2-chloroethyl)-1-nitrosourea]
basal level expression of ~4.4Kb DR5 transcripts after contact with drug (DR5): lesser effect
sensitivity of p53 knockout astrocytes compared with wild type astrocytes [1]: more sensitive

N.N.[Cl][Pt][Cl] [CDDP, cis-diamminedichloroplatinum (II)]
basal level expression of ~4.4Kb DR5 transcripts after contact with drug (DR5): increased significantly
time of contact needed for induction of DR5 (DR5; glioblastoma cell lines): 16 h
PARP cleavage product (85 kilodaltons) [2]: not
cell viability, single agent (U87MG cells [3]): sublethal
tumor growth compared with combined drugs (U87MG cells [4]): grew significantly faster

COc1cc([C@@H]2c3cc4c(cc3[C@@H](O[C@@H]3O[C@@H]5CO[C@@H](C)O[C@H]5[C@H](O)[C@H]3O)[C@H]3COC(=O)[C@H]23)OCO4)cc(OC)c1O [VP16, ectoposide]
basal level expression of ~4.4Kb DR5 transcripts after contact with drug (DR5): increased significantly
PARP cleavage product (85 kilodaltons) [2]: not
cell viability, single agent (U87MG cells [3]): sublethal

O=C(O)C[C@H](NC(=O)OCc1ccccc1)C(=O)COC(=O)c1c(Cl)cccc1Cl [Z-Asp-CH2-DCB]
effect on PARP cleavage elicited by TRAIL and CDDP or VP16 [2]: inhibited
effect on synergistic cytotoxicity of TRAIL plus DNA damaging agent (U87MG cells [3]; added to TRAIL plus CDDP or VP16): at levels obtained for single drugs
apoptosis on treatment with TRAIL, one of CDDP or VP16, and the caspase inhibitor (U87MG cells [5]): did not induce apoptosis

DR5-Fc: a soluble fusion protein that competes for TRAIL
effect on synergistic cytotoxicity of TRAIL plus DNA damaging agent (U87MG cells [6]): abolished
effect on PARP cleavage elicited by TRAIL and CDDP or VP16 [2]: inhibited

extracellular domain of DR4 expressed as a fusion protein with Fc: extracellular domain of DR4 expressed as a fusion protein with Fc
effect on synergistic cytotoxicity of TRAIL plus DNA damaging agent (U87MG cells [6]): same elimination of synergistic cytotoxicity

B1: TRAIL: tumor necrosis factor related apoptosis inducing ligand; given in vivo as fusion protein FLAG-TRAIL (protein)
chain: TSEETISTVQEKQQNISPLVRERGPQRVAAHITGTRGRSNTLSSPNSKNEKALGRKINSWESSRSGHSFLSNLHLRNGELVIHEKGFYYIYSQTYFRFQEEIKENTKNDKQMVQYIYKYTSYPDPILLMKSARNSCWSKDAEYGLYSIYQGGIFELKENDRIFVSVTNEHLIDMDHEASFFGAFLVG
PARP cleavage product (85 kilodaltons) [2]: not
cell viability, single agent (U87MG cells [3]): no effect on cell viability
reduction of amount of TRAIL necessary for efficacy in combination versus alone (U87MG cells [3]; in combination with DNA damaging agent): about 100 fold
tumor growth compared with combined drugs (U87MG cells [4]): grew significantly faster
